Experimental data from US20260297109A1, “COMPOUNDS AS SUMO ACTIVATING ENZYME INHIBITORS” (WIGEN BIOMEDICINE TECHNOLOGY (SHANGHAI) CO., LTD., priority 2022, published 2026).

What follows are compounds tested against T1, SAE (Homo sapiens, UniProt Q9UBT2) (assay: SUMO IF: in vitro inhibitory activity assay against SAE in HCT116 cells (SUMO-2/3 immunofluorescence)). Settings: class symbols, 6 h at 37° C.
T1 construct: endogenous in cells; host or cells: HCT116
T1 sequence (Q9UBT2 1-640): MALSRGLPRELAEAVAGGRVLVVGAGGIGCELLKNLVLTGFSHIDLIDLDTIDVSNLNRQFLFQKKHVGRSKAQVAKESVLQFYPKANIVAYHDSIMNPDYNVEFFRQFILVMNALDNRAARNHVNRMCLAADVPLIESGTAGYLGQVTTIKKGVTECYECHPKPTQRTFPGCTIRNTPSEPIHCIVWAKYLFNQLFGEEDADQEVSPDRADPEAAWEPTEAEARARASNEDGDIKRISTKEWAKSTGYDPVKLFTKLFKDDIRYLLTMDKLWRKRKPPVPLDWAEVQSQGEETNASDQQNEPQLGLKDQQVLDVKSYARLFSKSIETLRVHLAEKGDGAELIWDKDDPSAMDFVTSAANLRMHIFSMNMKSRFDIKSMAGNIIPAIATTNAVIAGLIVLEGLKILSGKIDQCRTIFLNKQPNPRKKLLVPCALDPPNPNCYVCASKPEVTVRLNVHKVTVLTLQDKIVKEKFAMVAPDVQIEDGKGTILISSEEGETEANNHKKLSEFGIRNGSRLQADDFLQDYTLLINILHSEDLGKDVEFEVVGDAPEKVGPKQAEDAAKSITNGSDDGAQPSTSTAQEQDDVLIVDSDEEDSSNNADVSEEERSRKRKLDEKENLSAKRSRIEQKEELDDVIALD
T1 sequence (Q9UBE0 1-346): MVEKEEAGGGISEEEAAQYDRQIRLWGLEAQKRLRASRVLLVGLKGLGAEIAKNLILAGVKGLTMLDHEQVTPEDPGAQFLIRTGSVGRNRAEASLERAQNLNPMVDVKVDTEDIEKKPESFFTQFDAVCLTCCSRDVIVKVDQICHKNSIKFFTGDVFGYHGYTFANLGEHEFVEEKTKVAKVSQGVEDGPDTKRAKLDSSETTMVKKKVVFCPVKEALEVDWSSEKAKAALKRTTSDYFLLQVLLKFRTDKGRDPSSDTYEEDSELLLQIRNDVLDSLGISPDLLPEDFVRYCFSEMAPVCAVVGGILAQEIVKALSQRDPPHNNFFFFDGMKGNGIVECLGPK
Assay type: cell-based
Method: Biological Example 1. In Vitro Inhibitory Activity Assay of Compounds of the Present Disclosure Against SAE
HCT116 cells were seeded into a 96-well black transparent bottom plate at about 20000/well with 90 μL per well. The cells were incubated at 37° C. overnight for 24 h. The test compounds were 10-fold diluted to give a final concentration, and 10 μL of the diluted compounds was added to each well of the cell culture plate. The mixture was incubated at 37° C. for 6 h. The cells were then washed gently, the culture medium was discarded, and the cells were washed once with 200 μL of 0.1% PBST. 50 μL of 4% PFA was added to each well, and the cells were immobilized at room temperature for 20 min, and then washed with PBS 2-3 times. 50 μL of 0.2% Triton X-100 was added to each well, and the cells were left to stand at room temperature for 15 min and washed with 0.1% PBST 3 times. 100 μL of 3% BSA (0.6 g BSA+20 mL PBS) was added to each well, and the mixture was blocked at 37° C. for 30 min. After the blocking was completed, the liquid was removed and a primary antibody (SUMO-2/3 (18H8) Rabbit mAb, 1:400 dilution) was prepared with 1% BSA. 30 μL of the diluted primary antibody was added to each well, and the mixture was incubated at 4° C. overnight. The cells were washed 3 times with 200 μL of 0.1% PBST. A FITC secondary antibody (Fluorescein (FITC)-conjugated Affinipure Goat Anti-Rabbit IgG (H+L), 1:300 dilution) was further prepared with 1% BSA, and 40 μL of the diluted secondary antibody was added to each well. The mixture was incubated at room temperature in the dark for 2 h, and then the cells were washed 4 times with 0.1% PBST. The fluorescence signal of the sample was detected and compared to the DMSO group, and the inhibition rate and IC50 were calculated.
For NS(=O)(=O)OC[C@H]1[C@H](F)[C@@H](Nc2ncncc2C(=O)c2cc3c(s2)CCC32NCCc3ccccc32)C[C@@H]1O (some centres unmarked) [Compound 127], the IC50 was greater than 0.2 µM. With NS(=O)(=O)OC[C@H]1[C@H](F)[C@@H](Nc2ncncc2C(=O)c2cc3c(s2)CCC32NCCc3ccc(Cl)cc32)C[C@@H]1O (some centres unmarked) [Compound 130] the IC50 was 0.05 to 0.2 µM. With NS(=O)(=O)OC[C@H]1[C@H](F)[C@@H](Nc2ncncc2C(=O)c2cc3c(s2)CCC32NCCc3ccc(F)cc32)C[C@@H]1O (some centres unmarked) [Compound 133] the IC50 was 0.05 to 0.2 µM. Work on N#Cc1ccc2c(c1)C1(CCc3sc(C(=O)c4cncnc4N[C@H]4C[C@H](O)[C@@H](COS(N)(=O)=O)[C@@H]4F)cc31)NCC2 (some centres unmarked) [Compound 136] yielded an IC50 of 0.05 to 0.2 µM. With N#Cc1ccc2c(c1)[C@]1(CCc3sc(C(=O)c4cncnc4N[C@H]4C[C@H](O)[C@@H](COS(N)(=O)=O)[C@@H]4F)cc31)NCC2 [Compound 137] the IC50 was greater than 0.2 µM. Compound N#Cc1ccc2c(c1)[C@@]1(CCc3sc(C(=O)c4cncnc4N[C@H]4C[C@H](O)[C@@H](COS(N)(=O)=O)[C@@H]4F)cc31)NCC2 [Compound 138] has an IC50 of 0.05 to 0.2 µM. For NS(=O)(=O)OC[C@H]1[C@H](F)[C@@H](Nc2ncncc2C(=O)c2cc3c(s2)OCC32NCCc3ccccc32)C[C@@H]1O (some centres unmarked) [Compound 139], the IC50 was greater than 0.2 µM. NS(=O)(=O)OC[C@H]1[C@H](F)[C@@H](Nc2ncncc2C(=O)c2cc3c(s2)OC[C@@]32NCCc3ccccc32)C[C@@H]1O [Compound 140] was tested, and the IC50 was greater than 0.2 µM. Compound NS(=O)(=O)OC[C@H]1[C@H](F)[C@@H](Nc2ncncc2C(=O)c2cc3c(s2)OC[C@]32NCCc3ccccc32)C[C@@H]1O [Compound 141] has an IC50 of 0.05 to 0.2 µM. NS(=O)(=O)OC[C@H]1[C@H](F)[C@@H](Nc2ncncc2C(=O)c2cc3c(s2)OCC32NCCc3ccc(F)cc32)C[C@@H]1O (some centres unmarked) [Compound 142] showed an IC50 greater than 0.2 µM. For NS(=O)(=O)OC[C@H]1[C@H](F)[C@@H](Nc2ncncc2C(=O)c2cc3c(s2)OC[C@@]32NCCc3ccc(F)cc32)C[C@@H]1O [Compound 143], the IC50 was greater than 0.2 µM. Compound NS(=O)(=O)OC[C@H]1[C@H](F)[C@@H](Nc2ncncc2C(=O)c2cc3c(s2)OC[C@]32NCCc3ccc(F)cc32)C[C@@H]1O [Compound 144] has an IC50 of 0.05 to 0.2 µM. NS(=O)(=O)OC[C@H]1[C@H](F)[C@@H](Nc2ncncc2C(=O)c2cc3c(s2)OCC32NCCc3ccc(Cl)cc32)C[C@@H]1O (some centres unmarked) [Compound 145] showed an IC50 of 0.05 to 0.2 µM. NS(=O)(=O)OC[C@H]1[C@H](F)[C@@H](Nc2ncncc2C(=O)c2cc3c(s2)OC[C@@]32NCCc3ccc(Cl)cc32)C[C@@H]1O [Compound 146] gave an IC50 greater than 0.2 µM. NS(=O)(=O)OC[C@H]1[C@H](F)[C@@H](Nc2ncncc2C(=O)c2cc3c(s2)OC[C@]32NCCc3ccc(Cl)cc32)C[C@@H]1O [Compound 147] showed an IC50 of 0.05 to 0.2 µM. Cc1ccc2c(c1)C1(CCc3sc(C(=O)c4cncnc4N[C@H]4C[C@H](O)[C@@H](COS(N)(=O)=O)[C@@H]4F)cc31)NCC2 (some centres unmarked) [Compound 148] was tested, and the IC50 was 0.05 to 0.2 µM. For NS(=O)(=O)OC[C@H]1[C@H](F)[C@@H](Nc2ncncc2C(=O)c2cc3c(s2)CCC32NCCc3ccc(C4CC4)cc32)C[C@@H]1O (some centres unmarked) [Compound 149], the IC50 was 0.05 to 0.2 µM. Compound COc1ccc2c(c1)C1(CCc3sc(C(=O)c4cncnc4N[C@H]4C[C@H](O)[C@@H](COS(N)(=O)=O)[C@@H]4F)cc31)NCC2 (some centres unmarked) [Compound 150] has an IC50 greater than 0.2 µM. NS(=O)(=O)OC[C@H]1[C@H](F)[C@@H](Nc2ncncc2C(=O)c2cc3c(s2)CCC32NCCc3ccc(C(F)(F)F)cc32)C[C@@H]1O (some centres unmarked) [Compound 151] showed an IC50 of 0.05 to 0.2 µM. NS(=O)(=O)OC[C@H]1[C@H](F)[C@@H](Nc2ncncc2C(=O)c2cc3c(s2)CCC32NCCc3cc(F)c(F)cc32)C[C@@H]1O (some centres unmarked) [Compound 152] showed an IC50 of 0.05 to 0.2 µM. With NS(=O)(=O)OC[C@H]1[C@H](F)[C@@H](Nc2ncncc2C(=O)c2cc3c(s2)CCC32NCCc3cc(F)c(Cl)cc32)C[C@@H]1O (some centres unmarked) [Compound 153] the IC50 was no more than 0.05 µM. Compound NS(=O)(=O)OC[C@H]1[C@H](F)[C@@H](Nc2ncncc2C(=O)c2cc3c(s2)CCC32NCCc3cc(Cl)c(Cl)cc32)C[C@@H]1O (some centres unmarked) [Compound 154] has an IC50 of 0.05 to 0.2 µM. With Cc1cc2c(cc1Cl)C1(CCc3sc(C(=O)c4cncnc4N[C@H]4C[C@H](O)[C@@H](COS(N)(=O)=O)[C@@H]4F)cc31)NCC2 (some centres unmarked) [Compound 155] the IC50 was 0.05 to 0.2 µM. N#Cc1cc2c(cc1Cl)C1(CCc3sc(C(=O)c4cncnc4N[C@H]4C[C@H](O)[C@@H](COS(N)(=O)=O)[C@@H]4F)cc31)NCC2 (some centres unmarked) [Compound 156] was tested, and the IC50 was 0.05 to 0.2 µM. COc1cc2c(cc1Cl)C1(CCc3sc(C(=O)c4cncnc4N[C@H]4C[C@H](O)[C@@H](COS(N)(=O)=O)[C@@H]4F)cc31)NCC2 (some centres unmarked) [Compound 157] gave an IC50 of 0.05 to 0.2 µM. NS(=O)(=O)OC[C@H]1[C@H](F)[C@@H](Nc2ncncc2C(=O)c2cc3c(s2)CCC32NCCc3cc(F)c(Cl)c(F)c32)C[C@@H]1O (some centres unmarked) [Compound 158] showed an IC50 of 0.05 to 0.2 µM. With NS(=O)(=O)OC[C@H]1[C@H](F)[C@@H](Nc2ncncc2C(=O)c2cc3c(s2)CCC32NCCc3cc(Cl)c(F)cc32)C[C@@H]1O (some centres unmarked) [Compound 159] the IC50 was 0.05 to 0.2 µM. For NS(=O)(=O)OC[C@H]1[C@H](F)[C@@H](Nc2ncncc2C(=O)c2cc3c(s2)CCC32NCCc3ccncc32)C[C@@H]1O (some centres unmarked) [Compound 160], the IC50 was 0.05 to 0.2 µM. For NS(=O)(=O)OC[C@H]1[C@H](F)[C@@H](Nc2ncncc2C(=O)c2cc3c(s2)CCC32NCCc3cc(Cl)ncc32)C[C@@H]1O (some centres unmarked) [Compound 161], the IC50 was 0.05 to 0.2 µM. NS(=O)(=O)OC[C@H]1[C@H](F)[C@@H](Nc2ncncc2C(=O)c2cc3c(s2)C=CC32NCCc3ccc(Cl)cc32)C[C@@H]1O (some centres unmarked) [Compound 162] was tested, and the IC50 was no more than 0.05 µM. For NS(=O)(=O)OC[C@H]1[C@H](F)[C@@H](Nc2ncncc2C(=O)c2cc3c(s2)C=CC32NCCc3ccc(F)cc32)C[C@@H]1O (some centres unmarked) [Compound 163], the IC50 was 0.05 to 0.2 µM. For NS(=O)(=O)OC[C@H]1[C@H](F)[C@@H](Nc2ncncc2C(=O)c2cc3c(s2)COC32NCCc3ccc(Cl)cc32)C[C@@H]1O (some centres unmarked) [Compound 164], the IC50 was 0.05 to 0.2 µM. Work on NS(=O)(=O)OC[C@H]1[C@H](F)[C@@H](Nc2ncncc2C(=O)c2cc3c(s2)CCC32NCC3(CC3)c3ccc(Cl)cc32)C[C@@H]1O (some centres unmarked) [Compound 165] yielded an IC50 of 0.05 to 0.2 µM. NS(=O)(=O)OC[C@H]1[C@H](F)[C@@H](Nc2ncncc2C(=O)c2cc3c(s2)CCC32NC3(CC3)Cc3ccc(Cl)cc32)C[C@@H]1O (some centres unmarked) [Compound 166] gave an IC50 of 0.05 to 0.2 µM. Work on NS(=O)(=O)OC[C@H]1[C@H](F)[C@@H](Nc2ncncc2C(=O)c2cc3c(s2)CCC32NCC(=O)c3ccc(Cl)cc32)C[C@@H]1O (some centres unmarked) [Compound 167] yielded an IC50 of 0.05 to 0.2 µM. NS(=O)(=O)OC[C@H]1[C@H](F)[C@@H](Nc2ncncc2C(=O)c2cc3c(s2)CCC32OCCc3ccc(Cl)cc32)C[C@@H]1O (some centres unmarked) [Compound 168] was tested, and the IC50 was no more than 0.05 µM.

Same assay, conditions: numeric values, 6 h at 37° C.
NS(=O)(=O)OC[C@H]1[C@H](F)[C@@H](Nc2ncncc2C(=O)c2cc3c(s2)CC[C@@]32NCCc3ccccc32)C[C@@H]1O [Compound 128] was tested, and the IC50 was greater than 1 µM. With NS(=O)(=O)OC[C@H]1[C@H](F)[C@@H](Nc2ncncc2C(=O)c2cc3c(s2)CC[C@]32NCCc3ccccc32)C[C@@H]1O [Compound 129] the IC50 was 0.121 µM. NS(=O)(=O)OC[C@H]1[C@H](F)[C@@H](Nc2ncncc2C(=O)c2cc3c(s2)CC[C@@]32NCCc3ccc(Cl)cc32)C[C@@H]1O [Compound 131] was tested, and the IC50 was greater than 1 µM. Compound NS(=O)(=O)OC[C@H]1[C@H](F)[C@@H](Nc2ncncc2C(=O)c2cc3c(s2)CC[C@@]32NCCc3ccc(F)cc32)C[C@@H]1O [Compound 134] has an IC50 greater than 1 µM. Compound NS(=O)(=O)OC[C@H]1[C@H](F)[C@@H](Nc2ncncc2C(=O)c2cc3c(s2)CC[C@]32NCCc3ccc(F)cc32)C[C@@H]1O [Compound 135] has an IC50 of 0.0489 µM.
